Experimental data from PubChem BioAssay (NCI).
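48-hour exposure; five concentrations; linearly interpolated endpoints. TGI marks complete inhibition of growth.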

Key:
Assay in all cases: NCI-60 cell line screen, 48 h
[1] = system: HS 578T breast
[2] = system: OVCAR-8 ovarian
[3] = system: SK-MEL-28 melanoma
[4] = system: NCI/ADR-RES ovarian
[5] = system: OVCAR-5 ovarian
[6] = system: K-562 leukemia
[7] = system: UO-31 renal
[8] = system: SNB-75 CNS
[9] = system: SR leukemia
[10] = system: COLO 205 colon
[11] = system: HL-60(TB) leukemia
[12] = system: RXF 393 renal
[13] = system: TK-10 renal
[14] = system: MALME-3M melanoma
[15] = system: SF-295 CNS
[16] = system: UACC-257 melanoma
[17] = system: SK-MEL-5 melanoma
[18] = system: M14 melanoma
[19] = system: HOP-92 NSCLC
[20] = system: OVCAR-4 ovarian

## O=C(O)Cc1cccc2c1OC(c1ccccc1)C(C(=O)c1ccccc1)C2=O (centres undefined)
[1]
  TGI: > 100 µM
[2]
  TGI: > 100 µM
[3]
  TGI: > 100 µM
[4]
  TGI: > 100 µM
[5]
  TGI: > 100 µM
[6]
  TGI: > 100 µM
[7]
  TGI: > 100 µM
[8]
  TGI: 51.3 µM
[9]
  TGI: > 100 µM
[10]
  TGI: > 100 µM
[11]
  TGI: 50.9 µM
[12]
  TGI: > 100 µM
[13]
  TGI: 79.9 µM
[14]
  TGI: > 100 µM
[15]
  TGI: > 100 µM
[16]
  TGI: > 100 µM
[17]
  TGI: > 100 µM

## C[C@H]1CCCCC[C@@H]2CC(=O)CC2C(=O)CCC(=O)O1 (some centres undefined)
[1]
  TGI: > 100 µM
[2]
  TGI: > 100 µM
[3]
  TGI: > 100 µM
[4]
  TGI: > 100 µM
[5]
  TGI: > 100 µM
[18]
  TGI: > 100 µM
[19]
  TGI: > 100 µM
[6]
  TGI: > 100 µM
[8]
  TGI: > 100 µM
[20]
  TGI: > 100 µM
[9]
  TGI: > 100 µM
[10]
  TGI: > 100 µM
[11]
  TGI: > 100 µM
[12]
  TGI: > 100 µM
[13]
  TGI: > 100 µM
[14]
  TGI: > 100 µM
[15]
  TGI: > 100 µM
[16]
  TGI: > 100 µM
[17]
  TGI: > 100 µM

## CCOC(=O)CCC(NC(=O)c1ccc(Nc2nc3ccccc3n3cccc23)cc1)C(=O)OCC (centres undefined)
[1]
  TGI: > 100 µM
[2]
  TGI: 77.9 µM
[3]
  TGI: > 100 µM
[4]
  TGI: 48.5 µM
[5]
  TGI: > 100 µM
[18]
  TGI: > 100 µM
[19]
  TGI: > 100 µM
[6]
  TGI: > 100 µM
[7]
  TGI: > 100 µM
[8]
  TGI: 53.6 µM
[9]
  TGI: > 100 µM
[10]
  TGI: > 100 µM
[11]
  TGI: > 100 µM
[12]
  TGI: 32.8 µM
[13]
  TGI: 64.7 µM
[14]
  TGI: > 100 µM
[15]
  TGI: 71.1 µM
[16]
  TGI: 72.5 µM
[17]
  TGI: > 100 µM

## CC[N+]1(C)CCC(O)(c2ccccc2)C(C(=O)c2ccccc2)C1 (centres undefined)
[1]
  TGI: 74 µM
[2]
  TGI: 59.1 µM
[3]
  TGI: 30.9 µM
[4]
  TGI: 83.6 µM
[5]
  TGI: 35.5 µM
[18]
  TGI: 24.1 µM
[19]
  TGI: 25.4 µM
[6]
  TGI: 13.2 µM
[7]
  TGI: 33.6 µM
[8]
  TGI: 24.3 µM
[20]
  TGI: 25.9 µM
[9]
  TGI: 15.6 µM
[10]
  TGI: 36.7 µM
[11]
  TGI: 15.9 µM
[12]
  TGI: 26.6 µM
[13]
  TGI: 31.4 µM
[14]
  TGI: 32.6 µM
[15]
  TGI: 35.9 µM
[16]
  TGI: 32.7 µM
[17]
  TGI: 33.6 µM

## COC(=O)n1c(=O)n(-c2ccccc2)c(=O)n1C(=O)Nc1ccccc1
[1]
  TGI: > 100 µM
[2]
  TGI: > 100 µM
[3]
  TGI: > 100 µM
[4]
  TGI: > 100 µM
[5]
  TGI: > 100 µM
[18]
  TGI: > 100 µM
[19]
  TGI: > 100 µM
[6]
  TGI: > 100 µM
[7]
  TGI: > 100 µM
[8]
  TGI: > 100 µM
[20]
  TGI: 87.8 µM
[9]
  TGI: > 100 µM
[10]
  TGI: > 100 µM
[11]
  TGI: > 100 µM
[12]
  TGI: > 100 µM
[13]
  TGI: > 100 µM
[14]
  TGI: > 100 µM
[15]
  TGI: > 100 µM
[16]
  TGI: > 100 µM
[17]
  TGI: > 100 µM

## COc1cc2c(cc1OC)C1CCc3ccccc3CN1CC2 (centres undefined)
[1]
  TGI: > 100 µM
[2]
  TGI: > 100 µM
[3]
  TGI: > 100 µM
[4]
  TGI: > 100 µM
[5]
  TGI: > 100 µM
[18]
  TGI: > 100 µM
[19]
  TGI: > 100 µM
[6]
  TGI: > 100 µM
[8]
  TGI: > 100 µM
[20]
  TGI: > 100 µM
[9]
  TGI: > 100 µM
[10]
  TGI: > 100 µM
[11]
  TGI: > 100 µM
[12]
  TGI: > 100 µM
[13]
  TGI: > 100 µM
[14]
  TGI: > 100 µM
[15]
  TGI: > 100 µM
[16]
  TGI: > 100 µM
[17]
  TGI: > 100 µM

## CCCN(CCC)c1cc2c(cc1F)c(=O)c(C(=O)O)cn2-c1ccc(N2CCN(C)CC2)cn1
[1]
  TGI: 35.1 µM
[2]
  TGI: 27.3 µM
[3]
  TGI: 36.5 µM
[4]
  TGI: 35.9 µM
[5]
  TGI: 41.3 µM
[18]
  TGI: 32.1 µM
[19]
  TGI: 28.7 µM
[6]
  TGI: 55.1 µM
[7]
  TGI: 32.2 µM
[8]
  TGI: 28.3 µM
[20]
  TGI: 43.3 µM
[9]
  TGI: 35.9 µM
[10]
  TGI: 27.1 µM
[11]
  TGI: 26.1 µM
[12]
  TGI: 33.1 µM
[13]
  TGI: 23.1 µM
[14]
  TGI: 27.9 µM
[15]
  TGI: 33.6 µM
[16]
  TGI: 36.4 µM

## C/C=C/C(C#N)(Cc1ccccc1)OP1(=O)OC(c2ccccc2)C(C)N1C (centres undefined)
[1]
  TGI: > 100 µM
[2]
  TGI: > 100 µM
[3]
  TGI: > 100 µM
[4]
  TGI: > 100 µM
[5]
  TGI: > 100 µM
[18]
  TGI: > 100 µM
[19]
  TGI: > 100 µM
[6]
  TGI: > 100 µM
[7]
  TGI: > 100 µM
[8]
  TGI: > 100 µM
[9]
  TGI: > 100 µM
[10]
  TGI: > 100 µM
[11]
  TGI: 41.9 µM
[12]
  TGI: > 100 µM
[13]
  TGI: > 100 µM
[14]
  TGI: > 100 µM
[15]
  TGI: > 100 µM
[16]
  TGI: > 100 µM
[17]
  TGI: > 100 µM

## CN(C)c1nc(=NCc2cccs2)ss1
[1]
  TGI: > 10 µM
[2]
  TGI: > 10 µM
[3]
  TGI: > 10 µM
[4]
  TGI: > 10 µM
[5]
  TGI: > 10 µM
[18]
  TGI: > 10 µM
[19]
  TGI: > 10 µM
[6]
  TGI: > 10 µM
[7]
  TGI: > 10 µM
[8]
  TGI: > 10 µM
[20]
  TGI: > 10 µM
[9]
  TGI: > 4.9 µM
[10]
  TGI: > 10 µM
[11]
  TGI: 2.16 µM
[12]
  TGI: > 10 µM
[13]
  TGI: > 10 µM
[14]
  TGI: > 10 µM
[15]
  TGI: > 10 µM
[16]
  TGI: > 10 µM
[17]
  TGI: > 10 µM

## Cc1cc(N(CCCCl)CCCCl)ccc1C=Nc1cccc(Cl)c1
[1]
  TGI: 36.2 µM
[2]
  TGI: 24.3 µM
[3]
  TGI: 41.5 µM
[4]
  TGI: 33.4 µM
[5]
  TGI: 12.6 µM
[18]
  TGI: 60.5 µM
[6]
  TGI: 22.7 µM
[7]
  TGI: 44.2 µM
[8]
  TGI: 24.7 µM
[20]
  TGI: 26.4 µM
[9]
  TGI: 24 µM
[10]
  TGI: 23.6 µM
[11]
  TGI: 38 µM
[12]
  TGI: 35.5 µM
[13]
  TGI: 27.5 µM
[14]
  TGI: 22.8 µM
[15]
  TGI: 43.5 µM
[16]
  TGI: 20.2 µM
[17]
  TGI: 27.4 µM

## CCN(CC)CCn1c2cc3c(cc2c(=O)c2cccnc21)OCO3
[1]
  TGI: > 10 µM
[2]
  TGI: > 10 µM
[3]
  TGI: > 10 µM
[4]
  TGI: > 10 µM
[5]
  TGI: > 10 µM
[18]
  TGI: > 10 µM
[19]
  TGI: > 10 µM
[8]
  TGI: > 10 µM
[20]
  TGI: > 10 µM
[9]
  TGI: > 10 µM
[10]
  TGI: > 10 µM
[11]
  TGI: > 10 µM
[12]
  TGI: > 10 µM
[13]
  TGI: > 10 µM
[14]
  TGI: > 10 µM
[15]
  TGI: > 10 µM
[16]
  TGI: > 10 µM
[17]
  TGI: > 10 µM
